For the assay, the target named is recombinant human MGAT2 (Homo sapiens (Human), UniProt Q3SYC2). Description: Measurement of human MGAT2 inhibitory activity. The following applies: read-out: IC50 (concentration exhibiting 50% enzyme inhibition), Table 53. In kind it is biochemical. The gist of the method:
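Membrane fraction of Sf9 cells expressing N-terminally Flag-tagged full-length human MGAT2, incubated 1 h at room temperature in 100 mmol/L phosphate pH 7.4 with 2 mmol/L DTT. The substrate solution held 30 μmol/L 2-oleoylglycerol and 10 μmol/L oleoyl-CoA. Diolein product was quantified by RapidFire ESI Q-TOF MS against diolein-d5 internal standard; % inhibition was set relative to with/without-enzyme controls.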
Chain of recombinant human MGAT2 (Q3SYC2 whole entry): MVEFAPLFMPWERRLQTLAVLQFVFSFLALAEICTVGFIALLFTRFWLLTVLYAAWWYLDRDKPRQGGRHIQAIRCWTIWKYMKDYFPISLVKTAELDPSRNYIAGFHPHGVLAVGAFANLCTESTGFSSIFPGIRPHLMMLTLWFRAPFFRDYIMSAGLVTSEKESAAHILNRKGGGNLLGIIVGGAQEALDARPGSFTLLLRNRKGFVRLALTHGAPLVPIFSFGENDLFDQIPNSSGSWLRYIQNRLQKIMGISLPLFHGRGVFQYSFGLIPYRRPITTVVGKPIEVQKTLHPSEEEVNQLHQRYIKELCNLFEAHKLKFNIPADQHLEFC
On to `N#Cc1ccc(-n2nc3c(c2C(=O)N[C@H]2CC[C@@H](O)C2)C(=O)N[C@@]2(CCc4cc(OCC(F)(F)F)ccc42)C3)nc1` [II-133], for which the IC50 amounted to 188 nM.

With `N#Cc1ccc(-n2nc3c(c2C(=O)NCCS(N)(=O)=O)C(=O)N[C@@]2(CCc4cc(OCC(F)(F)F)ccc42)C3)nc1` [II-134], the IC50 is 17.2 nM.

Regarding `CC(C)(O)CNC(=O)c1c2c(nn1-c1ccc(C#N)cn1)C[C@]1(CCc3cc(OCC(F)(F)F)ccc31)NC2=O` [II-135], the IC50 was determined as 60.6 nM.

On to `Cc1ccc(-n2nc3c(c2NC(=O)CS(C)(=O)=O)C(=O)N[C@@]2(CCc4cc(OCC(F)(F)F)ccc42)C3)cc1F` [II-136], for which the IC50 turned out to be 7.42 nM.

As for `CS(=O)(=O)CC(=O)Nc1c2c(nn1-c1ccc(Cl)c(F)c1)C[C@]1(CCc3cc(OCC(F)(F)F)ccc31)NC2=O` [II-137], the IC50 came to 4.79 nM.

Turning to `Cc1ccc(-n2nc3c(c2NC(=O)CS(C)(=O)=O)C(=O)N[C@@]2(CCc4cc(OCC(F)(F)F)ccc42)C3)cn1` [II-138], the IC50 is 45.7 nM.

Regarding `Cc1cc(-n2nc3c(c2NC(=O)CS(C)(=O)=O)C(=O)N[C@@]2(CCc4cc(OCC(F)(F)F)ccc42)C3)nnc1C` [II-139], the IC50 amounted to 3.15 nM.

`Cc1cnnc(-n2nc3c(c2NC(=O)CS(C)(=O)=O)C(=O)N[C@@]2(CCc4cc(OCC(F)(F)F)ccc42)C3)c1` [II-140]: the IC50 came out at 6.4 nM.

Consider `CS(=O)(=O)CC(=O)Nc1c2c(nn1-c1ccc(OC(F)F)cc1)C[C@]1(CCc3cc(OCC(F)(F)F)ccc31)NC2=O` [II-141], for which the IC50 was 12.8 nM.

With `CS(=O)(=O)CC(=O)Nc1c2c(nn1-c1ccc(C#N)cn1)C[C@]1(CCc3cc(C(F)(F)F)ccc31)NC2=O` [II-142], the IC50 is 4.03 nM.

`CS(=O)(=O)CC(=O)Nc1c2c(nn1-c1ccc(C#N)cn1)C[C@]1(CCc3cc(OCC(F)(F)F)ccc31)NC2=O` [II-143]: the IC50 was 0.706 nM.

Turning to `CS(=O)(=O)CC(=O)Nc1c2c(nn1-c1ccc(C#N)cn1)C[C@]1(CCc3cc(OCC(F)(F)F)c(F)cc31)NC2=O` [II-144], the IC50 amounted to 1.05 nM.

As to `CCOc1ccc2c(c1)OCC[C@]21Cc2nn(-c3ccc(C)cn3)c(NC(=O)CS(C)(=O)=O)c2C(=O)N1` [II-145], the IC50 was determined as 6.43 nM.

As for `Cc1ccc(-n2nc3c(c2NC(=O)CS(C)(=O)=O)C(=O)N[C@@]2(CCOc4cc(OCC(F)F)ccc42)C3)nc1` [II-146], the IC50 was found to be 2.55 nM.

Regarding `Cc1ccc(-n2nc3c(c2NC(=O)CS(C)(=O)=O)C(=O)N[C@@]2(CCOc4cc(Cl)ccc42)C3)nc1` [II-147], the IC50 was 4.92 nM.

As for `Cc1cc(-n2nc3c(c2NC(=O)CS(C)(=O)=O)C(=O)N[C@@]2(CCc4cc(OCC(F)(F)F)ccc42)C3)ccc1C#N` [II-148], the IC50 turned out to be 12.3 nM.

As for `Cc1cc(-n2nc3c(c2NC(=O)CS(C)(=O)=O)C(=O)N[C@@]2(CCc4cc(OCC(F)(F)F)ccc42)C3)ccc1F` [II-149], the IC50 worked out at 9.01 nM.

For `Cc1cc(-n2nc3c(c2NC(=O)CS(C)(=O)=O)C(=O)N[C@@]2(CCOc4cc(OCC(F)(F)F)ccc42)C3)no1` [II-150], the IC50 was found to be 1.33 nM.

Take `CS(=O)(=O)CC(=O)Nc1c2c(nn1CCC1CC1)C[C@]1(CCc3cc(OCC(F)(F)F)c(F)cc31)NC2=O` [II-152]: the IC50 turned out to be 1.96 nM.

As for `Cc1ccc(-n2nc3c(c2NC(=O)CS(C)(=O)=O)C(=O)N[C@@]2(CCOc4cc(OC(C)C)ccc42)C3)nc1` [II-153], the IC50 was found to be 4.94 nM.

Take `Cc1ccc(-n2nc3c(c2NC(=O)CS(C)(=O)=O)C(=O)N[C@@]2(CCOc4cc(N5CC(F)(F)C5)ccc42)C3)nc1` [II-154]: the IC50 came to 5.58 nM.

For the molecule `Cc1ccc(-n2nc3c(c2NC(=O)CS(C)(=O)=O)C(=O)N[C@@]2(CCc4cc(C5CC5)ccc42)C3)nc1` [II-156], the IC50 was 3.6 nM.

For the molecule `Cc1ccc(-n2nc3c(c2NC(=O)CS(C)(=O)=O)C(=O)N[C@@]2(CCc4cc(OCC(C)(F)F)ccc42)C3)nc1` [II-157], the IC50 was found to be 3.83 nM.

For `Cc1ccc(-n2nc3c(c2NC(=O)CS(C)(=O)=O)C(=O)N[C@@]2(CCc4cc(OCC(F)F)ccc42)C3)nc1` [II-158], the IC50 stood at 8.06 nM.

The values above are taken from patent publication US11198695B2, “Fused ring derivative having MGAT-2 inhibitory activity” (Shionogi & Co., Ltd., priority 2017, dated 2021).
